Measurements published in patent US6518252B2, “Method of treating aquatic animals with an antimicrobial agent and chelating agent” (priority 2000, dated 2003).

What was measured:
Staph. aureus = assay: Two-dimensional microtiter checkerboard, MIC and FIC of EDTA in 50 mM Tris and antibiotics; type: cell-based, Staphylococcus aureus; conditions: Staph. aureus; alone
Method: (§1) Sabath, L. D, Antimicrob. Agents and Chem. 210-217. (1967) and Sparks et al., Vet. Res. Comm. 18, 241-249 (1994), incorporated herein by reference in their entireties. […] Then 0.05 ml of an 18-hour old culture of a test organism, containing 10^6 colony-forming units (CFU) ml, were added to each well. Controls for the culture and media were included in each plate. Plates were covered and incubated at 37° C. for 18-24 hours. […] To generate isobolograms, FICs of the two test solutions were plotted individually on the x-axis and y-axis to determine the effect of combining the two test solutions on bacterial growth. A line that curves away from the zero point and the coordinates indicated antagonism. […] Sabath, L. D, Antimicrob. Agents and Chem. 210-217. (1967), and incorporated herein by reference in their entireties. A numerical score or Fractional Inhibitory Concentration (FIC) index was determined.

surface ulcers of Koi = assay: Treatment of Koi suffering from surface ulcers (Example 2); type: in vivo, Koi (Cyprinus carpio); conditions: antibiotics injected directly into the fish, before the bath treatment
Method: All fish were housed in a communal “hospital tank” before treatment and moved to an isolation tank after each treatment. The temperature of the bath was adjusted to that of the hospital tank temperature, 24° C., and adequate aeration was supplied to the treatment tank.

Ps. aeruginosa = assay: Two-dimensional microtiter checkerboard, MIC and FIC of EDTA in 50 mM Tris and antibiotics; type: cell-based, Pseudomonas aeruginosa; conditions: Ps. aeruginosa; alone
Method: as §1

Ent. faecalis = assay: as above; type: cell-based, Enterococcus faecalis; conditions: Ent. faecalis; alone
Method: as §1

Structure (SMILES)	MIC, antibiotic individually administered (Staph. aureus) [mg/L]	MIC, antibiotic individually administered (Ps. aeruginosa) [mg/L]	MIC, antibiotic individually administered (Ent. faecalis) [mg/L]	Healing of visible ulcers (surface ulcers of Koi)
NCC[C@H](O)C(=O)N[C@@H]1C[C@H](N)[C@@H](O[C@H]2O[C@H](CN)[C@@H](O)[C@H](O)[C@H]2O)[C@H](O)[C@H]1O[C@H]1O[C@H](CO)[C@@H](O)[C@H](N)[C@H]1O [Amikacin, amikacin, reference compound]	120	1	2000	failed to heal visible ulcers
C[C@H]1[C@H](NC(=O)/C(=N\OC(C)(C)C(=O)O)c2csc(N)n2)C(=O)N1S(=O)(=O)O [Azactam]				failed to heal visible ulcers
CCN1CCN(c2cc3c(cc2F)c(=O)c(C(=O)O)cn3C2CC2)CC1 [Baytril]				failed to heal visible ulcers

The next lines start with results.

MIC, antibiotic individually administered (Staph. aureus) [mg/L]	MIC, antibiotic individually administered (Ps. aeruginosa) [mg/L]	MIC, antibiotic individually administered (Ent. faecalis) [mg/L]	Structure (SMILES)	Healing of visible ulcers (surface ulcers of Koi)
240	490	1	CC1(C)S[C@@H]2[C@H](NC(=O)[C@H](N)c3ccccc3)C(=O)N2[C@H]1C(=O)O [Ampicillin, ampicillin, reference compound]	
390		400	O=C(N[C@H](CO)[C@H](O)c1ccc([N+](=O)[O-])cc1)C(Cl)Cl [Chloramphenicol, chloramphenicol, reference compound]	
